#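 Five concentrations, 48 hours, 96-well plates. TGI denotes the concentration required for complete inhibition of growth.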
# Tests used:
# Assay in all cases: NCI anticancer screen, dose series, 48 h
# [1] = system: OVCAR-8 ovarian
# [2] = system: MALME-3M melanoma
# [3] = system: KM12 colon
# [4] = system: RXF 393 renal
# [5] = system: SK-MEL-2 melanoma
# [6] = system: 786-0 renal
# [7] = system: SNB-75 CNS
# [8] = system: MDA-MB-435
# [9] = system: RPMI-8226 leukemia
# [10] = system: NCI-H460 lung
# [11] = system: MDA-MB-231 breast
# [12] = system: EKVX NSCLC
# [13] = system: HS 578T breast
# [14] = system: DU-145 prostate
# [15] = system: ACHN renal
# [16] = system: SF-268 CNS
# [17] = system: MOLT-4 leukemia
# [18] = system: HL-60(TB) leukemia
# [19] = system: TK-10 renal
# [20] = system: MCF7 breast
# [21] = system: NCI-H23 lung
# [22] = system: NCI-H522 lung
# [23] = system: SK-MEL-28 melanoma
# [24] = system: IGROV1 ovarian
# [25] = system: SF-539 CNS
# [26] = system: LOX IMVI melanoma
# [27] = system: PC-3 prostate
# [28] = system: SK-MEL-5 melanoma
# [29] = system: NCI/ADR-RES ovarian
# [30] = system: SN12C renal
# [31] = system: CCRF-CEM leukemia
# [32] = system: T-47D breast
# [33] = system: CAKI-1 renal
# [34] = system: BT-549 breast
# [35] = system: HOP-92 NSCLC
# [36] = system: A549 NSCLC
# [37] = system: SW-620 colon
# [38] = system: HT29 colon
# [39] = system: K-562 leukemia
# [40] = system: U251 CNS
# [41] = system: UACC-62 melanoma
# [42] = system: A498 renal
# [43] = system: OVCAR-3 ovarian
# [44] = system: HOP-62 NSCLC
# [45] = system: SK-OV-3 ovarian
# [46] = system: HCT-116 colon
# [47] = system: COLO 205 colon
# [48] = system: OVCAR-5 ovarian
# [49] = system: M14 melanoma
# [50] = system: HCT-15 colon
# [51] = system: NCI-H226 lung
# [52] = system: SF-295 CNS
# [53] = system: MDA-N
# [54] = system: SNB-19 CNS
# [55] = system: OVCAR-4 ovarian
# [56] = system: UO-31 renal
# [57] = system: HCC-2998 colon
# [58] = system: UACC-257 melanoma
# [59] = system: SR leukemia
smiles,measurement,setting,value
COC(=O)Nc1nc2ccc(NS(=O)(=O)c3ccc(Cl)cc3)cc2[nH]1,TGI,[1],54.7 µM
same,TGI,[2],43.7 µM
same,TGI,[3],14.9 µM
same,TGI,[4],26.4 µM
same,TGI,[5],26.8 µM
same,TGI,[6],56.3 µM
same,TGI,[7],7.59 µM
same,TGI,[8],5.5 µM
same,TGI,[9],26.8 µM
same,TGI,[10],43.1 µM
same,TGI,[11],28.5 µM
same,TGI,[12],33.2 µM
same,TGI,[13],8.86 µM
same,TGI,[14],62.6 µM
same,TGI,[15],> 100 µM
same,TGI,[16],67 µM
same,TGI,[17],> 100 µM
same,TGI,[18],12.6 µM
same,TGI,[19],17.7 µM
same,TGI,[20],35.7 µM
same,TGI,[21],36.9 µM
same,TGI,[22],8.19 µM
same,TGI,[23],27.3 µM
same,TGI,[24],7.81 µM
same,TGI,[25],30.4 µM
same,TGI,[26],16.9 µM
same,TGI,[27],54.3 µM
same,TGI,[28],16.7 µM
same,TGI,[29],47.7 µM
same,TGI,[30],72.3 µM
same,TGI,[31],56.9 µM
same,TGI,[32],60.7 µM
same,TGI,[33],21.1 µM
same,TGI,[34],55.2 µM
same,TGI,[35],8.55 µM
same,TGI,[36],72.1 µM
same,TGI,[37],> 100 µM
same,TGI,[38],15.5 µM
same,TGI,[39],> 100 µM
same,TGI,[40],47.5 µM
same,TGI,[41],33.5 µM
same,TGI,[42],9.91 µM
same,TGI,[43],10.7 µM
same,TGI,[44],31.5 µM
same,TGI,[45],44.2 µM
same,TGI,[46],11.1 µM
same,TGI,[47],24.5 µM
same,TGI,[48],44.6 µM
same,TGI,[49],23.4 µM
same,TGI,[50],> 100 µM
same,TGI,[51],47.2 µM
same,TGI,[52],19.2 µM
same,TGI,[53],5.93 µM
same,TGI,[54],29.6 µM
same,TGI,[55],51.5 µM
same,TGI,[56],40.7 µM
CN/N=C(/C=C/c1ccccc1)C(C)C,TGI,[1],> 100 µM
same,TGI,[2],> 100 µM
same,TGI,[3],> 100 µM
same,TGI,[4],> 100 µM
same,TGI,[5],> 100 µM
same,TGI,[57],> 100 µM
same,TGI,[6],> 100 µM
same,TGI,[7],> 100 µM
same,TGI,[58],> 100 µM
same,TGI,[8],> 100 µM
same,TGI,[9],> 100 µM
same,TGI,[12],> 100 µM
same,TGI,[13],> 100 µM
same,TGI,[14],> 100 µM
same,TGI,[15],> 100 µM
same,TGI,[16],> 100 µM
same,TGI,[17],> 100 µM
same,TGI,[18],> 100 µM
same,TGI,[19],> 100 µM
same,TGI,[20],> 100 µM
same,TGI,[21],> 100 µM
same,TGI,[22],> 100 µM
same,TGI,[23],> 100 µM
same,TGI,[24],> 100 µM
same,TGI,[25],> 100 µM
same,TGI,[26],> 100 µM
same,TGI,[27],> 100 µM
same,TGI,[28],> 100 µM
same,TGI,[29],> 100 µM
same,TGI,[30],> 100 µM
same,TGI,[31],> 100 µM
same,TGI,[32],> 100 µM
same,TGI,[33],> 100 µM
same,TGI,[34],> 100 µM
same,TGI,[36],> 100 µM
same,TGI,[37],> 100 µM
same,TGI,[38],> 100 µM
same,TGI,[39],> 100 µM
same,TGI,[40],> 100 µM
same,TGI,[41],> 100 µM
same,TGI,[43],> 100 µM
same,TGI,[44],> 100 µM
same,TGI,[45],> 100 µM
same,TGI,[46],> 100 µM
same,TGI,[47],> 100 µM
same,TGI,[48],> 100 µM
same,TGI,[49],> 100 µM
same,TGI,[50],> 100 µM
same,TGI,[51],> 100 µM
same,TGI,[52],> 100 µM
same,TGI,[53],> 100 µM
same,TGI,[54],> 100 µM
same,TGI,[55],> 100 µM
same,TGI,[56],> 100 µM
same,TGI,[59],> 100 µM

# From PubChem BioAssay (NCI)
